From patent publication US20170280720A1, “ARGININE […] INHIBITORS AND USES THEREOF” (EPIZYME, INC., priority 2014, published 2017)

Legend:
[1] = biological target: T1, human PRMT1 (Homo sapiens, UniProt Q99873); experiment: PRMT1 biochemical assay (3H-SAM Flashplate, peptide substrate); details: read-out: PRMT1_ IC50
T1 construct: GST-tagged PRMT1; made in house; host or cells: High Five insect cells (baculovirus, pFastBacI)
Source text: S-adenosylmethionine (SAM), S-adenosylhomocysteine (SAH), bicine, Tween20, dimethylsulfoxide (DMSO), bovine skin gelatin (BSG), and Tris(2-carboxyethyl)phosphine hydrochloride solution (TCEP) were purchased from Sigma-Aldrich at the highest level of purity possible. ^3H-SAM was purchase from American Radiolabeled Chemicals with a specific activity of 80 Ci/mmol. 384-well streptavidin Flashplates were purchased from PerkinElmer.
Peptide representative of human histone H4 residues 36-50 was synthesized with an N-terminal linker-affinity tag motif and a C-terminal amide cap by 21st Century Biochemicals. The peptide was purified by high-performance liquid chromatography (HPLC) to greater than 95% purity and confirmed by liquid chromatography mass spectrometry (LC-MS). The sequence was Biot-Ahx-[…]-amide (SEQ ID NO.: 1).
Full-length human PRMT1 isoform 1 (NM_001536.5) transcript clone was amplified from an HEK 293 cDNA library, incorporating flanking 5′ sequence encoding a FLAG tag ([…]) (SEQ ID NO.: 2) fused directly to Met 1 of PRMT1. The amplified gene was subcloned into pFastBacI (Life Technologies) modified to encode an N-terminal GST tag and a TEV cleavage sequence ([…] […] […] […] QGGNS)(SEQ ID NO.: 3) fused to Asp of the Flag tag of PRMT1.
Recombinant baculovirus were generated according to Bac-to-Bac kit instructions (Life Technologies). Protein over-expression was accomplished by infecting exponentially growing High Five insect cell culture at 1.5×10^6 cell/ml with 1:100 ratio of virus. Infections were carried out at 27° C. for 48 hours, harvested by centrifugation, and stored at −80° C. for purification.
GST-tagged PRMT1 was eluted with 50 mM Tris, 2 mM glutathione, pH 7.8, dialysed in buffer A and concentrated to 1 mg/mL. The purity of recovered protein was 73%. Reference: Wasilko, D. J. and S. E. Lee: “TIPS: titerless infected-cells preservation and scale-up” Bioprocess J., 5 (2006), pp. 29-32.
General Procedure for PRMT1 Enzyme Assays on Peptide Substrates.
The assays were all performed in a buffer consisting of 20 mM Bicine (pH=7.6), 1 mM TCEP, 0.005% BSG, and 0.002% Tween 20, prepared on the day of use. Compounds in 100% DMSO (1 ul) were spotted into a polypropylene 384-well V-bottom plates (Greiner) using a Platemate Plus outfitted with a 384-channel head (Thermo Scientific). DMSO (1 ul) was added to Columns 11, 12, 23, 24, rows A-H for the maximum signal control and 1 ul of SAH, a known product and inhibitor of PRMT1, was added to columns 11, 12, 23, 24, rows I-P for the minimum signal control. A cocktail (40 ul) containing the PRMT1 enzyme was added by Multidrop Combi (Thermo-Fisher). The compounds were allowed to incubate with PRMT1 for 30 min at room temperature, then a cocktail (10 ul) containing SAM and peptide was added to initiate the reaction (final volume=51 ul). The final concentrations of the components were as follows: PRMT1 was 0.5 nM, ^3H-SAM was 200 nM, non-radiolabeled SAM was 1.5 uM, peptide was 20 nM, SAH in the minimum signal control wells was 1 mM, and the DMSO concentration was 2%. The assays were stopped by the addition of non-radiolabeled SAM (10 ul) to a final concentration of 300 uM, which dilutes the ^3H-SAM to a level where its incorporation into the peptide substrate is no longer detectable. 50 ul of the reaction in the 384-well polypropylene plate was then transferred to a 384-well Flashplate and the biotinylated peptides were allowed to bind to the streptavidin surface for at least 1 hour before being washed once with 0.1% Tween20 in a Biotek ELx405 plate washer. The plates were then read in a PerkinElmer TopCount plate reader to measure the quantity of ^3H-labeled peptide bound to the Flashplate surface, measured as disintegrations per minute (dpm) or alternatively, referred to as counts per minute (cpm).
Where dpm=disintegrations per minute, cmpd=signal in assay well, and min and max are the respective minimum and maximum signal controls. […]

[2] = biological target: PRMT5 (Homo sapiens, UniProt O14744); experiment: PRMT5 IC50 (Table 2; no method described); format: biochemical; details: read-out: PRMT5_ IC50
PRMT5, sequence (O14744 whole entry, species assumed): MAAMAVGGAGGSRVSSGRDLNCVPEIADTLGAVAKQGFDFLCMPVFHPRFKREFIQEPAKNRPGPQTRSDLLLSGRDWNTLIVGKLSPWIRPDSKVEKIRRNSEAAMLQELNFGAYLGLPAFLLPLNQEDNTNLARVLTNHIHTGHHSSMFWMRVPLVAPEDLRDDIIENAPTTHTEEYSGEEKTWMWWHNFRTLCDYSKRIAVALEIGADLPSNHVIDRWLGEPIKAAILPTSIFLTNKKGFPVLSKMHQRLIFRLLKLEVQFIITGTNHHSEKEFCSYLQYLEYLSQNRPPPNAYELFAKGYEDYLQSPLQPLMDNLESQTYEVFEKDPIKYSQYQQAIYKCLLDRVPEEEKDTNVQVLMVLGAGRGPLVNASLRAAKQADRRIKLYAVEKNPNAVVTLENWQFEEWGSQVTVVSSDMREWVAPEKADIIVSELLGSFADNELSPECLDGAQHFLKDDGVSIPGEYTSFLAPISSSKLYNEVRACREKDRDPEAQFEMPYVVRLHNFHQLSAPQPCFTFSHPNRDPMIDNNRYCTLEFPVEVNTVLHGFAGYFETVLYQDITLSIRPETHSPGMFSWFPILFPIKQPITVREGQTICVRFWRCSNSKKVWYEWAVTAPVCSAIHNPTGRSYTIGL
PRMT5, sequence (Q9BQA1 whole entry partner, species assumed): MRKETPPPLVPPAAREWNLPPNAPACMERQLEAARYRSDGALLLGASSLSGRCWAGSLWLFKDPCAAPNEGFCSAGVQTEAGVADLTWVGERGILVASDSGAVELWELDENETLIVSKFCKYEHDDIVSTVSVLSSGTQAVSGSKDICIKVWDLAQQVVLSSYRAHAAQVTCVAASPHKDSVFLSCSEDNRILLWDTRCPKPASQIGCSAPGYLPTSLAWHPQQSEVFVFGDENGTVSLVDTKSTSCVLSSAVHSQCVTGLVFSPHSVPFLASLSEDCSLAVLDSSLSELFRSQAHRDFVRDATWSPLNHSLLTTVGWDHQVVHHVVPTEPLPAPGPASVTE

[3] = biological target: T2, Human CARM1 (PRMT4) (Homo sapiens, UniProt Q86X55); experiment: CARM1 biochemical assay (3H-SAM Flashplate, peptide substrate); details: read-out: CARM1_ IC50
T2 construct: Flag-CARM1-His; made in house; host or cells: HEK 293F cells (BacMam baculovirus, pFastBacMam)
T2 sequence (Q86X55 2-585 isoform Q86X55-1): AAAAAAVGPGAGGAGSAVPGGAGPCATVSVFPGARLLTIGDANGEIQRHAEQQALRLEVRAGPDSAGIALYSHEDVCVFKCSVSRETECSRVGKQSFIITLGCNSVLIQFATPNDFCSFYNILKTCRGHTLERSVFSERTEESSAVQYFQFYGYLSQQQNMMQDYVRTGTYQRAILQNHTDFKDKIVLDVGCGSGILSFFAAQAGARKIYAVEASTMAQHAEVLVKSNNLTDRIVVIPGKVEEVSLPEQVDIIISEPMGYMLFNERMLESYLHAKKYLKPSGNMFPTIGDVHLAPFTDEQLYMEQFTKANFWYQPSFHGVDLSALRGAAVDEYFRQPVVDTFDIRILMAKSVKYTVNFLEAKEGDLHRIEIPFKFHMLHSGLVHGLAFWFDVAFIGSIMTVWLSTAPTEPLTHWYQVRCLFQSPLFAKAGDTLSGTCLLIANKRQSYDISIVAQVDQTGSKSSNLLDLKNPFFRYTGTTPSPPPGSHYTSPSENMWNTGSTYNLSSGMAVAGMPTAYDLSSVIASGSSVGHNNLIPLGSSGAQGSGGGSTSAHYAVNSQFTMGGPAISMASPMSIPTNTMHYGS
Procedure, shortened: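 FLAG/His-tagged human CARM1 (isoform 1, Δ539-561, baculovirus-expressed), 0.25 nM, preincubated 30 min at room temperature with compound (2% DMSO) in 20 mM Bicine pH 7.6, then reacted with 30 nM 3H-SAM and 250 nM biotinylated H3 16-30 peptide (R26 monomethyl). Stopped with 300 uM cold SAM; labelled peptide captured on streptavidin Flashplate; % inhibition versus DMSO and 1 mM SAH controls fitted to a 4- or 3-parameter curve.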

T1 sequence (Q99873 with tags, fused parts or gaps): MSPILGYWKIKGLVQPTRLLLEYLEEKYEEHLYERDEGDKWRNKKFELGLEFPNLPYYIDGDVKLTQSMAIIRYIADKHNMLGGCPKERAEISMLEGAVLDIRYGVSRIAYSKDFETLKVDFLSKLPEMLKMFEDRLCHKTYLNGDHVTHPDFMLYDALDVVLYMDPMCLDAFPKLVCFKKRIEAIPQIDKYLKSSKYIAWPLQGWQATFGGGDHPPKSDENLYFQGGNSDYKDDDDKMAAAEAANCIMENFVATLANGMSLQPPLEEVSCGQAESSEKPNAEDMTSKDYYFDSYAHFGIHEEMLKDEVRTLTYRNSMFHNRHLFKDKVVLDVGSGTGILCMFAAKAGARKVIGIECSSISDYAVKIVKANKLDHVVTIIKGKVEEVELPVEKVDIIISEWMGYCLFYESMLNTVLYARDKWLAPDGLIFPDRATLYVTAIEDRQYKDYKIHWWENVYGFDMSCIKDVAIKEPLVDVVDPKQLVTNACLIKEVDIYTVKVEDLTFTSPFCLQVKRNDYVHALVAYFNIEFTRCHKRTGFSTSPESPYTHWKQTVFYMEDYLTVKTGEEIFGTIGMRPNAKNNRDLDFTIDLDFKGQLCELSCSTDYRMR

| Compound | IC50 [1] | IC50 [2] | IC50 [3] |
| --- | --- | --- | --- |
| NCCNCc1ccc(-c2ccc3nc(-c4ccc5cccnc5c4)[nH]c3c2)cc1 [Compound 77] | 317 nM | 258 nM |  |
| COc1ccc(-n2cnc3ccc(-c4ccc(CNCCN)cc4)cc32)cc1 [Compound 89] | 414 nM | 417 nM |  |
| COc1cccc(Cn2cnc3ccc(-c4ccc(CNCCN)cc4)cc32)c1 [Compound 90] | 430 nM | 125 nM |  |
| NCCNCc1ccc(-c2ccc3[nH]c(=O)n(-c4ccccc4)c3c2)cc1 [Compound 91] | 431 nM | 502 nM |  |
| NCCNCc1ccc(-c2ccc3ncn(-c4ccccc4)c3c2)cc1 [Compound 113] | 604 nM | 366 nM |  |
| Cc1cccc(Cn2cnc3ccc(-c4ccc(CNCCN)cc4)cc32)c1 [Compound 127] | 802 nM | 74.5 nM |  |
| NCCNCc1ccc(-c2ccc3ncn(C4CCCC4)c3c2)cc1 [Compound 146] | 1330 nM | 173 nM |  |
| CNCCN(C)Cc1cccc(-c2cc(C(=O)N[C@@H](C)c3ccccc3)c3cnn(Cc4ccccc4F)c3n2)c1 [Compound 283] |  | 29200 nM | 131 nM |
| CC(C)n1ncc2c(C(=O)N(C)Cc3cccc(F)c3)cc(-c3cccc(CN(C)CCN)c3)nc21 [Compound 287] |  | 4170 nM | 153 nM |
| CNCCN(C)Cc1cccc(-c2cc(C(=O)N[C@@H](C)c3ccccc3)c3cnn(-c4ccccn4)c3n2)c1 [Compound 303] |  | 13300 nM | 235 nM |
| CNCCN(C)Cc1cccc(-c2cc(C(=O)N(C)Cc3ccccc3F)c3cnn(C(C)C)c3n2)c1 [Compound 304] |  | 670 nM | 239 nM |
| COc1ccc(Cn2cnc3ccc(-c4cccc(CNCCN)c4)cc32)cc1 [Compound 309] |  | 1070 nM | 272 nM |
| NCCNCc1ccc(-c2ccc3ncn(Cc4cccc(C(=O)N5CCCC5)c4)c3c2)cc1 [Compound 323] |  | 127 nM | 756 nM |
| NCCNCc1ccc(-c2ccc3cnn(Cc4cccc(C(=O)N5CCCC5)c4)c3c2)cc1 [Compound 324] |  | 97.3 nM | 887 nM |
| NCCNCc1ccc(-c2ccc3ncn(Cc4cccc(C(=O)NC5CCCc6ccccc65)c4)c3c2)cc1 (stereo not drawn) [Compound 325] |  | 25.3 nM | 1030 nM |
| NCCNCc1ccc(-c2ccc3cnn(Cc4cccc(C(=O)N5CCCCC5)c4)c3c2)cc1 [Compound 326] |  | 170 nM | 1270 nM |
| NCCNCc1ccc(-c2ccc3ncn(Cc4cccc(C(=O)NC5CCCCC5)c4)c3c2)cc1 [Compound 327] |  | 72.8 nM | 1600 nM |
| NCCNCc1ccc(-c2ccc3ncn(Cc4cccc(C(=O)Nc5cccc6c5CCCC6)c4)c3c2)cc1 [Compound 328] |  | 80.5 nM | 2190 nM |
| CN1CCN(C(=O)c2cccc(Cn3cnc4ccc(-c5ccc(CNCCN)cc5)cc43)c2)CC1 [Compound 329] |  | 136 nM | 2480 nM |
| NCCNCc1ccc(-c2ccc3ncn(Cc4cccc(C(=O)Nc5ccccc5)c4)c3c2)cc1 [Compound 330] |  | 52.4 nM | 2720 nM |

| Compound | IC50 [1] | IC50 [2] | IC50 [3] |
| --- | --- | --- | --- |
| CN1CCCN(C(=O)c2cccc(Cn3cnc4ccc(-c5ccc(CNCCN)cc5)cc43)c2)CC1 [Compound 331] |  | 118 nM | 2810 nM |
| NCCNCc1ccc(-c2ccc3ncn(Cc4cccc(C(=O)NC5CCCC5)c4)c3c2)cc1 [Compound 332] |  | 85.9 nM | 2840 nM |
| CN1CCN(CCNC(=O)c2cccc(Cn3cnc4ccc(-c5ccc(CNCCN)cc5)cc43)c2)CC1 [Compound 333] |  | 94.7 nM | 3060 nM |
| NCCNCc1ccc(-c2ccc3cnn(Cc4cccc(Oc5ccccc5)c4)c3c2)cc1 [Compound 334] |  | 467 nM | 3130 nM |
| CN1CCN(C(=O)c2cccc(Cn3ncc4ccc(-c5ccc(CNCCN)cc5)cc43)c2)CC1 [Compound 335] |  | 73.8 nM | 3510 nM |
| NCCNCc1ccc(-c2ccc3ncn(CCc4cccc(Cl)c4)c3c2)cc1 [Compound 336] |  | 66.5 nM | 5120 nM |
| NCCNCc1ccc(-c2ccc3ncn(Cc4cccc(C(=O)NCc5ccccc5)c4)c3c2)cc1 [Compound 337] |  | 33.3 nM | 5350 nM |
| CN1CCCC(Cn2cnc3ccc(-c4ccc(CNCCN)cc4)cc32)C1 (stereo not drawn) [Compound 338] |  | 439 nM | 5530 nM |
| COc1ccc(Cn2ncc3ccc(-c4ccc(CNCCN)cc4)cc32)cc1 [Compound 339] |  | 135 nM | 5680 nM |
| CS(=O)(=O)c1ccc(Cn2cnc3ccc(-c4ccc(CNCCN)cc4)cc32)cc1 [Compound 340] |  | 105 nM | 5940 nM |
| CN(C)C(=O)c1cccc(Cn2cnc3ccc(-c4ccc(CNCCN)cc4)cc32)c1 [Compound 341] |  | 87.3 nM | 6080 nM |
| NCCNCc1ccc(-c2ccc3ncn(Cc4cccc(C(=O)NC5CC5)c4)c3c2)cc1 [Compound 342] |  | 110 nM | 6480 nM |
| CC(=O)c1cccc(Cn2ncc3ccc(-c4ccc(CNCCN)cc4)cc32)c1 [Compound 343] |  | 119 nM | 8890 nM |
| N#Cc1ccc(Cn2cnc3ccc(-c4ccc(CNCCN)cc4)cc32)cc1 [Compound 344] |  | 67.6 nM | 8960 nM |
| COCCNC(=O)c1cccc(Cn2cnc3ccc(-c4ccc(CNCCN)cc4)cc32)c1 [Compound 345] |  | 114 nM | 9390 nM |
| CN(C(=O)c1cccc(Cn2cnc3ccc(-c4ccc(CNCCN)cc4)cc32)c1)C1CCCC1 [Compound 346] |  | 116 nM | 10000 nM |
| NCCNCc1ccc(-c2ccc3ncn(Cc4cccc(C(=O)NC5CCOCC5)c4)c3c2)cc1 [Compound 347] |  | 181 nM | 10000 nM |
| NCCNCc1ccc(-c2ccc3cnn(CC4CCNCC4)c3c2)cc1 [Compound 348] |  | 435 nM | 10000 nM |
| Cc1cc(C)c(CN2Cc3ccc(-c4ccc(CNCCN)cc4)cc3C2=O)c(=O)[nH]1 [Compound 390] |  | 472 nM | 17500 nM |
